Measurements published in ChEMBL document CHEMBL4396965.

Key:
Type in all cases: cell-based
CCRF-CEM = assay: Cytotoxicity against human CEM cells
Huh-7 = assay: Cytotoxicity against human HuH7 cells
Vero = assay: Cytotoxicity against African green monkey Vero cells; settings: chlorocebus sabaeus
A549 = assay: Cytotoxicity against human A549 cells
PBMC = assay: (§1) Cytotoxicity against human PBMC cells; settings: pbmc
[1] = as §1; settings: PBMC cells

SMILES	CC50 (CCRF-CEM)	CC50 (Huh-7)	CC50 (Vero)	CC50 (A549)	CC50 (PBMC)	CC50 [1]
O=C(O)C12CC3CC(CC(Nc4nc(-c5c[nH]c6ncc(F)cc56)ncc4F)(C3)C1)C2	10.1 µM	14.3 µM	30.3 µM	16.2 µM	23.1 µM	–
O=C(O)[C@H]1C2C=CC(CC2)[C@@H]1c1nnc2c(F)cnc(-c3c[nH]c4ncc(F)cc34)n12 (some centres not stated)	41.7 µM	≥ 100 µM	≥ 100 µM	65.4 µM	≥ 100 µM	–
O=C(O)[C@H]1C2C=CC(CC2)[C@@H]1Nc1nc(-c2c[nH]c3ncc(F)cc23)ncc1F (some centres not stated)	91.1 µM	–	> 100 µM	–	–	> 100 µM
O=C(O)[C@H]1C2CCC(CC2)[C@@H]1Nc1nc(-c2c[nH]c3ncc(F)cc23)ncc1F [PIMODIVIR]	48.9 µM	95.8 µM	> 100 µM	20 µM	> 100 µM	–
O=C(O)[C@H]1C2C=CC(C2)[C@@H]1Nc1nc(-c2c[nH]c3ncc(F)cc23)ncc1F (some centres not stated)	> 100 µM	> 100 µM	> 100 µM	> 100 µM	> 100 µM	–
Cc1csc2c(N[C@H]3C4C=CC(CC4)[C@@H]3C(=O)O)nc(-c3c[nH]c4ncc(F)cc34)nc12 (some centres not stated)	> 100 µM	> 100 µM	> 100 µM	> 100 µM	> 100 µM	–
O=C(O)[C@H]1C2CCC(C3CC32)[C@@H]1Nc1nc(-c2c[nH]c3ncc(F)cc23)ncc1F (some centres not stated)	62.9 µM	–	> 100 µM	94.6 µM	> 100 µM	–
O=C(O)[C@H]1C2C=CC(CC2)[C@@H]1Nc1nc(-c2c[nH]c3ncc(F)cc23)nc2sccc12 (some centres not stated)	4.2 µM	24 µM	65.9 µM	14.5 µM	9.3 µM	–
O=C(O)[C@H]1C2C=CC(CC2)[C@@H]1Nc1nc(-c2n[nH]c3ncc(F)cc23)nc2sccc12 (some centres not stated)	13.7 µM	62.7 µM	> 100 µM	> 100 µM	> 100 µM	–
O=C(O)[C@H]1C2C=CC(CC2)[C@@H]1Nc1nc(-c2c[nH]c3ncc(F)cc23)nc2ccsc12 (some centres not stated)	31.6 µM	68.7 µM	74.9 µM	14.7 µM	64.6 µM	–
O=C(O)[C@H]1C2C=CC(CC2)[C@@H]1Nc1nc(-c2n[nH]c3ncc(F)cc23)nc2ccsc12 (some centres not stated)	67 µM	70.7 µM	52.5 µM	32.5 µM	> 100 µM	–
Cn1cnc2c(N[C@H]3C4C=CC(CC4)[C@@H]3C(=O)O)nc(-c3c[nH]c4ncc(F)cc34)nc21 (some centres not stated)	29.1 µM	> 100 µM	> 100 µM	≥ 100 µM	> 100 µM	–
O=C(O)[C@H]1C2C=CC(CC2)[C@@H]1Nc1cc2nncn2c(-c2c[nH]c3ncc(F)cc23)n1 (some centres not stated)	30.8 µM	71 µM	> 100 µM	51.9 µM	> 100 µM	–
Cn1cnc2nc(-c3c[nH]c4ncc(F)cc34)nc(N[C@H]3C4C=CC(CC4)[C@@H]3C(=O)O)c21 (some centres not stated)	> 100 µM	> 100 µM	> 100 µM	> 100 µM	> 100 µM	–
O=C(O)[C@H]1C2C=CC(CC2)[C@@H]1Nc1nc(-c2n[nH]c3ncc(F)cc23)ncc1F (some centres not stated)	48.9 µM	83 µM	> 100 µM	30.6 µM	> 100 µM	–
Cc1cc2nc(-c3c[nH]c4ncc(F)cc34)nc(N[C@H]3C4C=CC(CC4)[C@@H]3C(=O)O)c2s1 (some centres not stated)	12.9 µM	31.2 µM	90.3 µM	41.7 µM	78.4 µM	–
O=C(O)[C@H]1C2C=CC(CC2)[C@@H]1Nc1nc2cnc(-c3c[nH]c4ncc(F)cc34)nc2s1 (some centres not stated)	17.3 µM	70.2 µM	86.1 µM	31.3 µM	84.8 µM	–
